# Assay results reported in the supplement of paper PMC10307832.
# Experiments:
# AZ505 + Dasatinib = compound: C1CCC(CC1)N(CCNCCC2=C3C(=C(C=C2)O)NC(=O)CO3)C(=O)CCNCCC4=CC(=C(C=C4)Cl)Cl [AZ505] + Cc1nc(Nc2ncc(C(=O)Nc3c(C)cccc3Cl)s2)cc(N2CCN(CCO)CC2)n1 [Dasatinib] (partner 0.075 µM); test: relative viability (nuclei count vs DMSO), 5 days (fraction); higher = more cells survive
# Outline: (§1)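 Relative viability is defined as nuclei in treated wells over nuclei in vehicle wells. Duplicate plates were run and medians reported. Lung cancer cell lines in 1536-well plates were dosed by pin tool one day after seeding, with one drug or with a fixed anchor-drug dose plus five library-drug doses (not always all listed) in √10 steps, and nuclei were counted after 5 days.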
# AZ505 + Luminespib = compound: C1CCC(CC1)N(CCNCCC2=C3C(=C(C=C2)O)NC(=O)CO3)C(=O)CCNCCC4=CC(=C(C=C4)Cl)Cl [AZ505] + CCNC(=O)c1noc(-c2cc(C(C)C)c(O)cc2O)c1-c1ccc(CN2CCOCC2)cc1 [Luminespib] (partner 0.01 µM); test: as above
# Outline: as §1
Cell Line,relative viability (AZ505 + Dasatinib; first compound 0.08 µM),relative viability (AZ505 + Dasatinib; first compound 0.253 µM),relative viability (AZ505 + Dasatinib; first compound 0.8 µM),relative viability (AZ505 + Dasatinib; first compound 8 µM),relative viability (AZ505 + Luminespib; first compound 0.08 µM),relative viability (AZ505 + Luminespib; first compound 0.253 µM),relative viability (AZ505 + Luminespib; first compound 0.8 µM),relative viability (AZ505 + Luminespib; first compound 8 µM),relative viability (AZ505 + Dasatinib; first compound 2.53 µM),relative viability (AZ505 + Luminespib; first compound 2.53 µM)
NCI-H727,0.28,0.274,0.372,0.504,0.319,0.336,0.328,0.421,–,–
NCI-H1355,0.695,0.674,0.603,0.748,0.672,0.701,0.655,0.718,0.702,0.675
HOP-62,0.528,0.644,0.484,0.64,0.864,0.883,0.824,1,0.598,0.884
NCI-H2085,0.246,0.242,0.234,0.237,0.378,0.41,0.423,0.403,0.252,0.4
SW 900,0.584,0.458,0.54,0.658,0.193,0.183,0.137,0.167,0.919,0.195
